# Reference: ChEMBL document CHEMBL3046916, “ROLE OF INTERMEDIARY BIOMARKERS IN DETERMINING THE ANTICANCER EFFICACY OF MARINE COMPOUNDS” (2004)
# Active and inactive are the calls of the source. The rule behind the calls is not given here.
# Experiments:
# Type in all cases: functional
# MCF7 [1] = experiment: Inhibition of residual DNA repair ability in Homo sapiens (human) MCF7 cells assessed as plaque forming unit at 50 uM followed by irradiated with 200 Jm'-2 of UV after 24 hr by host cell reactivation assay relative to control
# MCF7 [2] = experiment: Increase of benzo[alpha]pyrene-DNA adduct formation in Homo sapiens (human) MCF7 cells at 50 uM treated for 24 hr before benzo[alpha]pyrene addition measured after 24 hr by 32P-postlabeling technique relative to control
# MCF7 [3] = experiment: Decrease of p53 protein expression in Homo sapiens (human) MCF7 cells at 50 uM followed by irradiated with UV after 4 hr by Western blot analysis relative to control; parameters: scale not given: the % may be the effect or the level left
# MCF7 [4] = experiment: Inhibition of residual DNA repair ability in Homo sapiens (human) MCF7 cells assessed as plaque forming unit at 50 uM followed by irradiated with 100 Jm'-2 of UV after 24 hr by host cell reactivation assay relative to control
# MCF7 [5] = experiment: Decrease of p16 protein expression in Homo sapiens (human) MCF7 cells at 50 uM followed by irradiated with UV after 4 hr by Western blot analysis relative to control; parameters: scale not given: the % may be the effect or the level left
# MCF7 [6] = experiment: Decrease of p21 protein expression in Homo sapiens (human) MCF7 cells at 50 uM followed by irradiated with UV after 4 hr by Western blot analysis relative to control; parameters: scale not given: the % may be the effect or the level left
# MCF7 [7] = experiment: Inhibition of residual DNA repair ability in Homo sapiens (human) MCF7 cells assessed as plaque forming unit at 50 uM followed by irradiated with 50 Jm'-2 of UV after 24 hr by host cell reactivation assay relative to control
# MCF7 [8] = experiment: Increase of benzo[alpha]pyrene-DNA adduct formation in Homo sapiens (human) MCF7 cells at 100 uM treated for 24 hr before benzo[alpha]pyrene addition measured after 24 hr by 32P-postlabeling technique relative to control
SMILES,%PFU (MCF7 [1]),fold change (FC) (MCF7 [2]),Activity (MCF7 [3]),%PFU (MCF7 [4]),Activity (MCF7 [5]),Activity (MCF7 [6]),%PFU (MCF7 [7]),Activity (MCF7 [2]),fold change (FC) (MCF7 [8])
O[C@]12C=C(c3nccc4c3[nH]c3ccccc34)[C@@H]3CCN(CCCC/C=C\CC1)C[C@@]31C[C@@H]3/C=C\CCCCN3[C@H]12 [MANZAMINE A],9%,2,63%,15%,89%,80%,46%,–,–
CC1=C2CC/C(C)=C/CC[C@]3(C)O[C@H]3CC/C(C)=C/[C@@H]2OC1=O [SARCOPHINE],24%,–,90%,38%,96%,120%,69%,inactive,2
